This is an account of results in article PMC8658016, “Identification of New Compounds with Anticonvulsant and Antinociceptive Properties in a Group of 3-substituted (2,5-dioxo-pyrrolidin-1-yl)(phenyl)-Acetamides” (International Journal of Molecular Sciences, 2021).

Data set [1] is described as follows: Pharmacokinetic study in mice, serum and brain (LC-MS/MS). It is filed as in vivo, mouse. The settings on record: for k el: non-compartmental analysis, read-out: λz (converted). The method, then:
The amount of the target compound in the serum and brain was determined by an LC-MS/MS system. […] The compound also very quickly penetrated to the murine brain and reached the maximum concentration in this organ at 15 min. However, the brain concentrations were lower than those in the serum. The compound was slowly eliminated from the body as its concentrations were still measurable up to 8 h. The terminal slope reflecting the elimination rate from the brain was similar to that observed in the serum. Male CD-1 mice weighting 28–33 g housed in conditions of the constant temperature with a 12:12 h light–dark cycle with free access to food and water were used in this study. The investigated compound was dissolved in sterile water for injection (Polpharma, Poland) and administered i.p. at a dose of 40 mg/kg. The mice were sacrificed by decapitation under isoflurane anesthesia. Blood samples were collected at 5, 15, 30, 60, 120, 240, and 480 min after dosing and brains were harvested at the same time points. Blood was allowed to clot at room temperature for 20 min and serum was separated by centrifugation at 3000 rpm for 10 min (Eppendorf MiniSpin centrifuge, Germany). The samples were stored at −80 °C until analysis. All animal procedures were approved by the First Ethical Committee on Animal Experimentation in Krakow, Poland (no. 270/2019). Concentrations of compound 14 in mouse brains and serum were measured by liquid chromatography tandem mass spectrometry (LC-MS/MS) method using SCIEX QTRAP 4500 triple quadrupole mass spectrometer coupled to Excion LC AC HPLC system (both from Danaher Corporation, Washington, DC, USA). Chromatographic separation was carried out on the Hypersil GoldTM C18 analytical column (2.1 × 50 mm, 3 µm, Thermo Scientific, USA) with the oven temperature set at 40 °C. […] The remaining time of elution was set at 95% B. The whole HPLC operation lasted 10 min. Electrospray ionization (ESI) in the positive ion mode was used for ion production. The tandem mass spectrometer was operated at unit resolution in the selected reaction monitoring mode (SRM), monitoring the transition of the protonated molecular ions m/z 489 to 132 (CE = 65 eV) and m/z 489 to 231 (CE = 29 eV) for compound 14 (first pair was used as a quantifier and the second for the identity verification qualifier) and m/z 436 to 235 (CE = 42 eV) for an internal standard (valsartan). The mass spectrometric conditions were optimized by continuous infusion of the standard solution at the rate of 7 μL/min using a Harvard infusion pump. The ion source temperature was maintained at 450 °C and the ion spray voltage was set at 5500 V. The curtain gas (CUR) was set at 40 psi and the collision gas (CAD) at medium. Data acquisition and processing were accomplished using the Analyst version 1.7 software. The calibration curves were constructed by plotting the ratio of the peak area of the studied compound to internal standard (IS) versus drug concentration and generated by weighted (1/x·x) linear regression analysis. The validated quantitation ranges for this method were within the expected concentration ranges, namely, from 0.1 to 20 µg/mL of serum and from 0.05 to 10 µg/g of brain tissue with accuracy from 93.73 to 104.29% and from 88.33 to 107% for serum and brain, respectively. No significant matrix effect was observed and there were no stability-related problems during the routine analysis of the samples. The brains were homogenized in distilled water at the ratio of 1:4 (w/v) with a tissue homogenizer LabGEN 125 (Cole-Parmer, Vernon Hills, IL, USA). […] Serum supernatant was additionally diluted 10 times with the deproteinization solution. Then, brain or serum supernatants were transferred into the autosampler vials. The autosampler temperature was maintained at 15 °C and a sample volume of 2 μL was injected into the LC-MS/MS system.

The test system of the next data set is mice. Kind of data set: Formalin test (tonic pain). The format is in vivo. The settings on record: Mus musculus, ip, mice i.p. The method, then:
The formalin test is a commonly used model of pain also useful in screening the analgesic activity of novel compounds. A subcutaneous formalin injection results in a biphasic nociceptive response; a phase one (5 min) followed by a quiescent period (10 min) and then phase two (15 min). C-fibers’ initial and direct stimulation in phase one led to peripheral inflammation accompanied by ongoing peripheral nerve activity and central sensitization during phase two. Moreover, a formalin injection induces persistent changes similar to those observed in nerve injury and subsequent neuropathic pain [27].
The experiments were conducted on adult male Albino Swiss mice (CD-1, 18–25 g) and male Wistar rats (Krf:(WI) WU), 180–250 g) as described previously. The minimum number of animals used needed to obtain definite and normally distributed results with the utilized test. Behavioral measures were scored by trained observers, which were blind to experimental conditions. […]
Data were presented as means ± standard error of the mean (S.E.M). […] Statistically significant differences between groups were calculated using one-way analysis of variance (ANOVA) and the post hoc Dunnett’s multiple comparison test or two-way analysis of variance (ANOVA) and the post hoc Tukey’s comparison when appropriate. […]

The mark [2] stands for this setting: male, CD-1, mouse, ip, brain, mice, 40 mg/kg i.p.
The mark [3] stands for this setting: male, CD-1, mouse, ip, serum, mice, 40 mg/kg i.p.

Broadly, the Cmax is the peak of the concentration-time curve. The MRT is the average time that molecules of a dose stay in the body. In general, Tmax refers to the time from dosing to the highest level. One may read the CL/F as the apparent clearance, not corrected for the fraction that reaches the circulation. The ED50 is the dose at which the effect has come halfway, by size or by number of responders.

Where two headings read alike, the source gives them in different places.

Turning to `CN(C)C1CC(=O)N(C(C(=O)N2CCN(c3cccc(C(F)(F)F)c3)CC2)c2ccccc2)C1=O.Cl` (centres unmarked) [Compound 14, 3-(Dimethylamino)-1-(2-oxo-1-phenyl-2-(4-(3-(trifluoromethyl)phenyl)-piperazin-1-yl)ethyl)pyrrolidine-2,5-dione hydrochloride], the “AUC0-∞” value is given as 413.17 µg⋅min/mL(g) in data set [1] (brain, mice, 40 mg/kg i.p.) and 1451.22 µg⋅min/mL(g) in data set [1] (serum, mice, 40 mg/kg i.p.). Also, the highest concentration (Cmax) in data set [1] (brain, mice, 40 mg/kg i.p.) is 5.32 µg/mL(g); in data set [1] (male, CD-1, mouse, brain, ip, 40 mg/kg, mice i.p., calculated for the free base, read-out: Cmax in the brain), 10.9 µM; in data set [1] (male, CD-1, mouse, serum, ip, 40 mg/kg, mice i.p., calculated for the free base, read-out: Cmax in serum) it was 41.1 µM; in data set [1] (serum, mice, 40 mg/kg i.p.), 20.06 µg/mL(g). For the same molecule, the t0.5λz in data set [1] (brain, mice, 40 mg/kg i.p.) turned out to be 66.14 min; in data set [1] (serum, mice, 40 mg/kg i.p.) it was 64.65 min. In addition, the Kp in data set [1] (male, CD-1, mouse, brain and serum, ip, mice, 40 mg/kg i.p., read-out: brain-to-serum AUC ratio) was ≤ 0.3. The concentration at 30 min was 7.2 µM in data set [1] (male, CD-1, mouse, brain, ip, 40 mg/kg, mice i.p., calculated for the free base, read-out: C30 min. in the brain); 3500 ± 990 ng/g in data set [1] (male, CD-1, mouse, brain, ip, mice, 40 mg/kg i.p., read-out: brain level 30 min post-dose); 24.3 µM in data set [1] (male, CD-1, mouse, serum, ip, 40 mg/kg, mice i.p., calculated for the free base, read-out: C30 min. in serum). The results for the MRT in data set [1] (setting [2]) and in data set [1] (setting [3]) were 89.2 min and 93.5 min, respectively. Further, the time to peak (Tmax) is 15 min in data set [1] (setting [2]) and 5 min in data set [1] (setting [3]). Moreover, the k el in data set [1] (setting [2]) and in data set [1] (setting [3]) was 0.000183 s⁻¹ each time. The apparent clearance (CL/F) in data set [1] (setting [3]) amounted to 27 mL/min/kg. Moreover, the “brain concentration 15 min after administration (highest)” value in data set [1] (mice, 40 mg/kg i.p.) is 5.32 ± 0.54 µg/g tissue. In addition, in data set [1] (serum, mice, 40 mg/kg i.p.), the V/F amounted to 2.57 L/kg. The median effective dose (ED50) came out at 85.1 mg/kg in the data set with mice (0–5 min after formalin, read-out: ED50 formalin test, phase I) and 56.1 mg/kg with mice (15–30 min after formalin, read-out: ED50 formalin test, phase II).
